Among the test systems are SW-620; HCC 2998; MDA-N; SK-MEL-5; NCI-H522; SK-MEL-2; SF-268; IGROV-1; Hs-578T; M14; UACC-257; NCI-H460; K562; HCT-116; SNB-78; 786-0; SN12C; SK-OV-3; HOP-92; SR.
Common to all, as to test: growth of human tumour cells (NCI), 48 h

This note sets out measurements from ChEMBL document CHEMBL1201862, “PubChem BioAssay data set” (2004).

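The compound was tested at five concentrations on cells cultured in 96-well plates, with a 48-hour exposure period. Here, GI50 denotes the concentration required for 50% inhibition of growth.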 Activity calls are given as the source filed them. Rule as the data show it: active = GI50 up to about 1.1 µM and inactive = higher. Bounds are passed on as bounds.

On to `COC(=O)/C(=N\Nc1nnc(C)n1N)C(C#N)c1ccccc1` (stereo unspecified), for which the GI50 in the assay on SW-620 is > 86.5 µM (inactive); in the assay on HCC 2998 it was > 100 µM (inactive); in the assay on MDA-N, 23.4 µM (inactive); in the assay on SK-MEL-5, 92.3 µM (inactive); with NCI-H522, > 100 µM (inactive); in the assay on SK-MEL-2, > 100 µM (inactive). The GI50 was > 100 µM (inactive) in the assay on SF-268; > 54.8 µM (inactive) with IGROV-1; > 100 µM (inactive) in the assay on Hs-578T; > 74.6 µM (inactive) in the assay with M14; 40.6 µM (inactive) in the assay with UACC-257; > 100 µM (inactive) with NCI-H460. The GI50 was > 100 µM (inactive) in the assay with K562; > 73.1 µM (inactive) with HCT-116; > 100 µM (inactive) in the assay on SNB-78; > 39.9 µM (inactive) in the assay on 786-0; > 48.4 µM (inactive) in the assay on SN12C; > 100 µM (inactive) with SK-OV-3. Besides, the GI50 in the assay with HOP-92 was > 100 µM (inactive).
Take `C/N=c1/ss/c(=N\C(SC)=[N+](C)C)n1C.[O-][Cl+3]([O-])([O-])[O-]`: the GI50 was > 100 µM (inactive) in the assay with SW-620; > 100 µM (inactive) with SR; > 100 µM (inactive) in the assay on HCC 2998; 0.419 µM (active) with SK-MEL-5; 14.8 µM (inactive) in the assay on NCI-H522; > 100 µM (inactive) in the assay on SK-MEL-2. Moreover, the GI50 with SF-268 was > 100 µM (inactive); in the assay on IGROV-1, > 100 µM (inactive); in the assay on M14, > 100 µM (inactive); in the assay with UACC-257, > 100 µM (inactive); with NCI-H460 it was 4.09 µM (inactive); with K562, 17.3 µM (inactive). Also, the GI50 in the assay on HCT-116, in the assay with SNB-78, with 786-0, with SN12C, with SK-OV-3 and in the assay on HOP-92 was > 100 µM (inactive) in each case.
In the case of `CC(=O)Nc1ccc(SC#N)c2c(NC(C)=O)cccc12`, the GI50 in the assay with SW-620 is 43.1 µM (inactive); in the assay on SR it was 33.6 µM (inactive); in the assay with HCC 2998, > 100 µM (inactive); in the assay on SK-MEL-5, > 100 µM (inactive); in the assay with NCI-H522, > 47.6 µM (inactive); in the assay on SK-MEL-2, > 100 µM (inactive). Also, the GI50 in the assay with SF-268 was 98.4 µM (inactive); in the assay with IGROV-1, > 100 µM (inactive); in the assay on M14 it was > 100 µM (inactive); with UACC-257, > 100 µM (inactive); with NCI-H460, > 100 µM (inactive); in the assay with K562, 34 µM (inactive). Further, the GI50 in the assay on HCT-116 is > 86.3 µM (inactive); in the assay on SNB-78 it was 99.3 µM (inactive); with 786-0, > 100 µM (inactive); with SN12C, > 100 µM (inactive); with SK-OV-3 it was > 100 µM (inactive); in the assay on HOP-92, 50.7 µM (inactive).
Regarding `CC(=O)OCCOCNC(=S)N/N=C/c1ccc([N+](=O)[O-])s1`, the GI50 was 30.5 µM (inactive) with SW-620; 9.68 µM (inactive) with SR; 43.2 µM (inactive) in the assay with HCC 2998; 25.7 µM (inactive) in the assay on SK-MEL-5; 11.2 µM (inactive) with NCI-H522; 67.3 µM (inactive) in the assay on SK-MEL-2. Further, the GI50 with SF-268 was 61.9 µM (inactive); in the assay with IGROV-1, 34 µM (inactive); in the assay on M14, 40 µM (inactive); in the assay on UACC-257, 23.8 µM (inactive); in the assay with NCI-H460, 42.4 µM (inactive); in the assay with K562, 21.7 µM (inactive). Also, the GI50 is 20.1 µM (inactive) in the assay on HCT-116; > 100 µM (inactive) in the assay on SNB-78; > 100 µM (inactive) with 786-0; 36.4 µM (inactive) in the assay on SN12C; > 100 µM (inactive) with SK-OV-3; > 100 µM (inactive) with HOP-92.
In the case of `CCOC(=O)C1=C(O)C(=O)c2ccccc2C1=O`, the GI50 with SW-620 was > 100 µM (inactive); in the assay with SR, > 100 µM (inactive); in the assay with HCC 2998, > 100 µM (inactive); in the assay on SK-MEL-5 it was 46.5 µM (inactive); with NCI-H522 it was > 100 µM (inactive); with SK-MEL-2 it was > 100 µM (inactive). For the same compound, the GI50 in the assay with SF-268, with IGROV-1, with M14, in the assay on UACC-257, in the assay on NCI-H460 and with K562 was > 100 µM (inactive) each time. The GI50 in the assay with HCT-116, in the assay on SNB-78, in the assay with 786-0, with SN12C, with SK-OV-3 and with HOP-92 was > 100 µM (inactive) throughout.
